# Reference: patent publication US5057493A, “Novel antibiotics R106” (priority 1988, dated 1991)
# Starred links: 1 amine or outer side, 2 acyl side, 3 side chain; linkers in the order of their positions; H or OH if unused. Non-standard residues stand in square brackets, D forms with d. Residues, ends and D or L forms follow the SMILES beside them. ξ: configuration not given here. ξNMeVal(3-OH) = CNC(C(=O)O)C(C)(C)O; NMeF = CN[CH](Cc1ccccc1)C(=O)O; X1 = CCC(C)C(O[*:1])C(=O)[*:2]; NMeV = CN[CH](C(=O)O)C(C)C
# Columns and labels:
# [1] = test system: Candida albicans var. stellatoidia TIMM 1308; assay: MIC by agar dilution method, casitone agar; type: cell-based; conditions: 27° C. for 4 days
# Procedure: (§1) The minimum inhibitory concentration (MIC) of each antibiotic against various fungi was determined by the agar dilution method using casitone agar medium (2.0% glucose, 0.9% bacto-casitone, 1.0% yeast extract, 0.1% KH2 PO4, 0.1% Na2 HPO4, 1.0% sodium citrate, 2.0% agar: concentrations are all by w/v).
# (§2) Each minimum growth inhibitory concentration was determined after culturing at 27° C. for 4 days.
# [2] = test system: Cryptococcus laurentii TIMM 0352; assay: MIC by agar dilution method, casitone agar; type: cell-based; conditions: 27° C. for 4 days
# Procedure: as §1, §2
# [3] = test system: Aspergillus flavus TIMM 0058; assay: MIC by agar dilution method, casitone agar; type: cell-based; conditions: 27° C. for 7 days
# [4] = test system: Aspergillus nidulans TIMM 0112; assay: MIC by agar dilution method, casitone agar; type: cell-based; conditions: 27° C. for 7 days
# [5] = test system: Aspergillus niger TIMM 0113; assay: MIC by agar dilution method, casitone agar; type: cell-based; conditions: 27° C. for 7 days
# [6] = test system: Aspergillus terreus TIMM 0120; assay: MIC by agar dilution method, casitone agar; type: cell-based; conditions: 27° C. for 7 days
# [7] = test system: Aspergillus commune TIMM 1331; assay: MIC by agar dilution method, casitone agar; type: cell-based; conditions: 27° C. for 7 days
# [8] = test system: Trichophyton mentagrophytes TIMM 1177; assay: MIC by agar dilution method, casitone agar; type: cell-based; conditions: 27° C. for 7 days
# [9] = test system: Trichophyton rubrum TIMM 1216; assay: MIC by agar dilution method, casitone agar; type: cell-based; conditions: 27° C. for 7 days
# [10] = test system: Microsporum canis TIMM 0760; assay: MIC by agar dilution method, casitone agar; type: cell-based; conditions: 27° C. for 7 days
# [11] = test system: Epidermophyton floccosum TIMM 0431; assay: MIC by agar dilution method, casitone agar; type: cell-based; conditions: 27° C. for 7 days
# [12] = test system: Fonsecaea pedrosoi TIMM 0482; assay: MIC by agar dilution method, casitone agar; type: cell-based; conditions: 27° C. for 7 days
# [13] = test system: Phialophora verrucosa TIMM 0903; assay: MIC by agar dilution method, casitone agar; type: cell-based; conditions: 27° C. for 7 days
# [14] = test system: Exophiala werneckii TIMM 1334; assay: MIC by agar dilution method, casitone agar; type: cell-based; conditions: 27° C. for 7 days
# [15] = test system: Cladosporium bantianum TIMM 0343; assay: MIC by agar dilution method, casitone agar; type: cell-based; conditions: 27° C. for 7 days
# [16] = test system: Cladosporium carrionii TIMM 0337; assay: MIC by agar dilution method, casitone agar; type: cell-based; conditions: 27° C. for 7 days
# [17] = test system: Sporothrix schenckii TIMM 0959; assay: MIC by agar dilution method, casitone agar; type: cell-based; conditions: 27° C. for 7 days
# [18] = test system: Histoplasma capsulatum TIMM 0713; type: cell-based; conditions: 27° C. for 7 days
# [19] = test system: Histoplasma capsulatum TIMM 0714; type: cell-based; conditions: 27° C. for 7 days
# [20] = test system: Paracoccidioides brasiliensis TIMM 0878; assay: MIC by agar dilution method, casitone agar; type: cell-based; conditions: 27° C. for 7 days
# Procedure: as §1, with “The antibiotics R106 of the present invention are active against various fungi including pathogenic fungi. The” for “The”
# (§3) After culturing at 27° C. for 7 days, each minimum inhibitory concentration was determined.
# [21] = test system: Paracoccidioides brasiliensis TIMM 0880; assay: MIC by agar dilution method, casitone agar; type: cell-based; conditions: 27° C. for 7 days
# Procedure: as §1, with “The antibiotics R106 of the present invention are active against various fungi including pathogenic fungi. The” for “The”
# as §3
# [22] = test system: Geotrichum candidum TIMM 0694; assay: MIC by agar dilution method, casitone agar; type: cell-based; conditions: 27° C. for 7 days
# [23] = test system: Trichosporon cutanum TIMM 1318; assay: MIC by agar dilution method, casitone agar; type: cell-based; conditions: 27° C. for 7 days
# [24] = test system: Blastomyces dermatitidis TIMM 0126; assay: MIC by agar dilution method, casitone agar; type: cell-based; conditions: 27° C. for 7 days
# [25] = test system: Candida albicans TIMM 1768; assay: Systemic candidiasis model of mice; type: in vivo, ICR strain mice; conditions: for Mean Survival Day: 3 hours after infection, then once a day for 4 days, 30 days; for Number of Animal Survived/Number of Animal Tested: 30 days after infection; for T/C: mean survival day treated vs control
# Procedure: Candida albicans TIMM 1768 was cultured in Sabouraud-dextrose broth at 37° C. overnight, and the cells were collected and suspended in physiological saline. A cell suspension containing 1×10^6 cells was intravenously injected to ICR strain mice (5 week age, female). After 3 hours, a solution of an antibiotic R106 in TWEEN 80-ethanolphysiological saline (1:9:90, v/v) was subcutaneously, intravenously or orally given to the mice in various concentrations, and then once a day for 4 days the R106 drug solution was given. Mortality was assessed for 30 days after infection to determine the therapeutic effect.
# T/C is a value which expresses the mean survival day of the treated group
# to the mean survival day of the not treated control group by %.
# [26] = 50% lethal dose (LD50) in mice; type: in vivo
# Text: All of the antibiotics R106 show low toxicity. The results of 50% lethal dose (LD50) obtained when each of representative compounds of the present invention was given to mice intravenously, intraperitoneally and orally are shown in Table 7.
# [27] = Physicochemical properties of compound 1
# Text: Physicochemical properties of compound 1 are as follows.
smiles,measurement,setting,value
CCC(C)C1NC(=O)C2CCCN2C(=O)C(Cc2ccccc2)N(C)C(=O)C(Cc2ccccc2)NC(=O)C(C(C)C)N(C)C(=O)C(C(C)CC)OC(=O)C(C(C)(C)O)N(C)C(=O)C(CC(C)C)NC(=O)C(C(C)C)N(C)C1=O (stereo not drawn) [Compound 1] (cyclo([ξNMeVal(3-OH)][X1][NMeV]F[NMeF]PI[NMeV]L); configuration not given here),Minimum Inhibitory Concentration,[1],≤ 0.04 µg/mL
same,Minimum Inhibitory Concentration,[2],0.31 µg/mL
same,Minimum Inhibitory Concentration,[3],> 80 µg/mL
same,Minimum Inhibitory Concentration,[4],0.16 µg/mL
same,Minimum Inhibitory Concentration,[5],> 80 µg/mL
same,Minimum Inhibitory Concentration,[6],5 µg/mL
same,Minimum Inhibitory Concentration,[7],1.25 µg/mL
same,Minimum Inhibitory Concentration,[8],> 80 µg/mL
same,Minimum Inhibitory Concentration,[9],> 80 µg/mL
same,Minimum Inhibitory Concentration,[10],> 80 µg/mL
same,Minimum Inhibitory Concentration,[11],2.5 µg/mL
same,Minimum Inhibitory Concentration,[12],0.31 µg/mL
same,Minimum Inhibitory Concentration,[13],> 80 µg/mL
same,Minimum Inhibitory Concentration,[14],1.25 µg/mL
same,Minimum Inhibitory Concentration,[15],0.63 µg/mL
same,Minimum Inhibitory Concentration,[16],1.25 µg/mL
same,Minimum Inhibitory Concentration,[17],> 80 µg/mL
same,Minimum Inhibitory Concentration,[18],0.16 µg/mL
same,Minimum Inhibitory Concentration,[19],0.08 µg/mL
same,Minimum Inhibitory Concentration,[20],80 µg/mL
same,Minimum Inhibitory Concentration,[21],0.31 µg/mL
same,Minimum Inhibitory Concentration,[22],0.63 µg/mL
same,Minimum Inhibitory Concentration,[23],> 80 µg/mL
same,Minimum Inhibitory Concentration,[24],0.31 µg/mL
same,Mean Survival Day,[25]; i.v. 0.875 mg/kg,14.6 ± 1.9 days
same,Number of Animal Survived/Number of Animal Tested,[25]; i.v. 0.875 mg/kg,0/5
same,T/C,[25]; i.v. 0.875 mg/kg,119%
same,Mean Survival Day,[25]; i.v. 1.75 mg/kg,18.2 ± 5.0 days
same,Number of Animal Survived/Number of Animal Tested,[25]; i.v. 1.75 mg/kg,0/5
same,T/C,[25]; i.v. 1.75 mg/kg,149%
same,Mean Survival Day,[25]; i.v. 3.5 mg/kg,19.2 ± 6.3 days
same,Number of Animal Survived/Number of Animal Tested,[25]; i.v. 3.5 mg/kg,0/5
same,T/C,[25]; i.v. 3.5 mg/kg,157%
same,Mean Survival Day,[25]; i.v. 7 mg/kg,29.0 ± 2.2 days
same,Number of Animal Survived/Number of Animal Tested,[25]; i.v. 7 mg/kg,4/5
same,T/C,[25]; i.v. 7 mg/kg,237%
same,Mean Survival Day,[25]; i.v. 14 mg/kg,26.6 ± 5.0 days
same,Number of Animal Survived/Number of Animal Tested,[25]; i.v. 14 mg/kg,3/5
same,T/C,[25]; i.v. 14 mg/kg,217%
same,Mean Survival Day,[25]; p.o. 7 mg/kg,14.8 ± 4.8 days
same,Number of Animal Survived/Number of Animal Tested,[25]; p.o. 7 mg/kg,0/5
same,T/C,[25]; p.o. 7 mg/kg,121%
same,Mean Survival Day,[25]; p.o. 14 mg/kg,23.2 ± 6.2 days
same,Number of Animal Survived/Number of Animal Tested,[25]; p.o. 14 mg/kg,0/5
same,T/C,[25]; p.o. 14 mg/kg,189%
same,Mean Survival Day,[25]; p.o. 28 mg/kg,30.0 ± 0 days
same,Number of Animal Survived/Number of Animal Tested,[25]; p.o. 28 mg/kg,5/5
same,T/C,[25]; p.o. 28 mg/kg,245%
same,Mean Survival Day,[25]; s.c. 1.75 mg/kg,14.2 ± 2.9 days
same,Number of Animal Survived/Number of Animal Tested,[25]; s.c. 1.75 mg/kg,0/5
same,T/C,[25]; s.c. 1.75 mg/kg,116%
same,Mean Survival Day,[25]; s.c. 3.5 mg/kg,18.8 ± 3.5 days
same,Number of Animal Survived/Number of Animal Tested,[25]; s.c. 3.5 mg/kg,0/5
same,T/C,[25]; s.c. 3.5 mg/kg,153%
same,Mean Survival Day,[25]; s.c. 7 mg/kg,22.4 ± 7.0 days
same,Number of Animal Survived/Number of Animal Tested,[25]; s.c. 7 mg/kg,2/5
same,T/C,[25]; s.c. 7 mg/kg,183%
same,Mean Survival Day,[25]; s.c. 14 mg/kg,27.2 ± 6.3 days
same,Number of Animal Survived/Number of Animal Tested,[25]; s.c. 14 mg/kg,4/5
same,T/C,[25]; s.c. 14 mg/kg,222%
same,LD50,[26]; i.p.,> 400 mg/kg
same,LD50,[26]; i.v.,> 200 mg/kg
same,LD50,[26]; p.o.,> 1000 mg/kg
same,"Acidic, neutral or basic",[27],neutral substance
same,Solubility in solvent,[27]; organic solvents,"soluble in chloroform, methanol, ethanol, N,N-dimethylformamide and dimethylsulfoxide"
same,Solubility in solvent,[27]; water,sparingly soluble in water
